Results published in patent publication US6656921B1, “Use of zinc hyaluronate against peptic ulcer” (Richter Gedeon Vegyeszeti Gyar RT., priority 1997, dated 2003).
Marks after values point to notes of the source that are not given here.

Columns and labels:
Assay type in all cases: in vivo, rat
[1] = test system: stress-induced gastric lesion; assay: Inhibition of stress (cold-restraint) induced gastric lesions; conditions: for Lesion score/stomach ± S.E.M.: 30 min before cold-restraint stress, score 0-3; for Inhibition: 30 min before stress; for Protection against cold-restraint induced gastric damage (in words): rat, in vivo
Description: Female RG Wistar rats weighing between 120-150 g were used. Before the experiments animals were fasted for 24 hours but received water ad libitum. Experiments were carried out according to the technique similar to that described by Senay et al., (1967). [Proc. Soc. Exp. Biol. Med.124,1221, (1967)].
Test compounds were given orally. 30 minutes later the animals were immobilized in plastic restraint boxes then placed into a refrigerator at 4° C.-8° C. temperature. Four hours later the animals were removed from both the refrigerator and the restraint boxes and one hour later they were sacrificed by cervical dislocation. The stomachs were removed, opened along the greater curvature and hemorrhagic lesions were scored by a zero to 3 scale: stomachs free from any damage were given a score of 0, stomachs with only a few hemorrhagic lesion were given a score of 1, stomachs with more lesion numbers than 10 were given a score of 2, and stomachs with a lot of lesions were characterized with a score of 3.
The ED50 were defined as the dose needed to decrease the score of gastric lesions by 50%.

[2] = test system: indomethacin induced gastric lesion; assay: Inhibition of indomethacin induced gastric lesion; conditions: for Protection of gastric mucosa against indomethacin (in words): rat, in vivo
Description: 2. Inhibition of Indomethacin Induced Gastric Lesion Female RG Wistar rats weighing between 120-150 g were used. Before the experiments animals were fasted for 24 hours but received water ad libitum. Test compounds were given orally, 30 minutes later the animals were treated subcutaneously with indomethacin at a dose of 40 mg/kg. Four hours after the irritating indomethacin administration the animals were killed by cervical dislocation. The stomachs were removed, opened along the greater curvature and the hemorrhagic lesions were counted on the glandular stomach.
ED50 value represents the dose which protects the stomach by 50 % from the damaging effect of indomethacin.

[3] = test system: acidified ethanol induced gastric lesion; assay: Inhibition of acidified-ethanol induced gastric lesions; conditions: for Inhibition / Lesion length/stomach mm ± S.E.M. / Lesion length/stomach: 30 min before acidified ethanol; for ED50 (dose giving 50% decrease in ulcer index): p.o., 30 min pretreatment
Description: Female RG-Wistar rats weighing between 120-150 g were used. Before experiments animals were fasted for 24 hours but received water ad libitum.
Experiments were carried out according to the technique similar to that described by A. Robert [Gastroenterology 77, […] (1979)].
Acidified ethanol (mixture of 50 ml of abs. ethanol and 1 ml of concentrated HCI) was used as strong irritants. Dose of acidified ethanol was 0.5 ml/100 g body weight with intragastric administration. Test compounds were given orally 30 minutes before the acidified ethanol challenge. When the duration of action of test compound was studied test material was administered 60 or 120 minutes earlier to the irritating effect induced by acidified-ethanol effect. One hour after the acidified ethanol treatment rats were sacrificed by cervical dislocation. Stomachs were removed and opened along the greater curvature and mildly washed down. The longitudinal hemorrhagic lesions were assayed by length.
ED50 value was defined as the dose that gave a 50% decrease in ulcer index.

[4] = test system: acidified ethanol induced gastric damage; assay: Effect of L-NAME (endogenous NO) on protection against acidified-ethanol induced gastric damage
Description: To study the mechanism of action of the compound to be tested, the involvement of endogenous NO in the development of acidified-ethanol induced gastric damage was also studied by intraperitoneal administration of L-N^G-nitroarginine methyl ester (L-NAME). L-NAME at a dose of 25 mg/kg was injected 15 minutes before the test compound. In subsequent experiments the test compound (p.o.), L-NAME (25 mg/kg i.p.), L-arginine (400 mg/kg i.v.) were administered 30, 45 or 60 minutes before oral administration of acidified-ethanol.
The connection between the cytoprotective effect of zinc hyaluronate and endogenic NO was studied by using an inhibitor of the nitrogen(II) oxide biosynthesis namely, N^G-nitro-L-arginine methyl ester (L-NAME). Considering that zinc hyaluronate(II) and zinc hyaluronate(M) had shown the same activity in acidified ethanol test, the latter was the only one tested in this experiment.

[5] = test system: platelet activating factor (PAF) induced gastric lesion; assay: Inhibition of gastric damage induced by platelet activating factor (PAF)
Description: Male, RG-Wistar rats weighing between 200-250 g were used. Before the experiments animals were fasted for 24 hours but received water ad libitum. Experiments were carried out according to the technique similar to that described by Wallace and Whittle (1986). [Br.J.Pharmac., 89,415, (1986)]. Animals were anaesthetized by intraperitoneal administration of urethane at a dose of 1 g/kg in a volume of 10 ml/kg. Femoral vein was then prepared and cannulated for administration of ulcerogenic PAF. After the surgery PAF was infused intravenously at a rate of 0.1 ml/min for ten minutes at a dose of 200 ng/kg/min. Test compounds were given 30 minutes before the PAF challenge. One hour after the infusion of PAF animals were sacrificed by cervical dislocation; their stomachs were removed and opened along the greater curvature. The hemorrhagic erosions were evaluated by a zero to three scoring system.

[6] = test system: gastrointestinal motility; assay: Gastrointestinal motility in the charcoal propulsion test; conditions: 100 mg/kg p.o.; for Propulsion of charcoal suspension mm ± S.E.M.: 30 min before charcoal, 60 min after charcoal
Description: Experiments were performed on female, RG-Wistar rats weighing 120-140 g, which were fasted for 24 hours but received water ad libitum.
The experimental procedure was carried out according to the technique similar to that described of P. A. Janssen and A. J. Jageneau [J. Pharm. Pharmacel. 9, 381 (1957)].
Test compounds were given orally at a dose of 100 mg/kg. Control animals received physiological saline solution instead of test compounds. 30 minutes later, the 5% (w/v) charcoal suspension was administered orally at a volume of 0.5 ml/animal. 60 minutes after the charcoal treatment the animals were sacrificed by cervical dislocation. The intestine from pylorus to cecum was removed, its lengths measured along with the distance traversed by the charcoal meal.
Motility was expressed as the ratio of length of charcoal suspension to the length of the whole intestine.

[7] = test system: acetic acid induced chronic gastric ulcer; assay: Inhibition of acetic acid induced chronic gastric ulcer; conditions: for Ulcerated area mm^2 ± S.E.M.: 1.0 mg/kg p.o. once a day, day 5 to 14 after surgery; for Effect on healing of acetic acid induced chronic ulcer (in words): rat, in vivo
Description: Female, RG Wistar rats weighing between 120-150 g were used. Before the surgery animals were deprived of food for 24 hours but received water ad libitum. The chronic gastric ulcer was induced by the injection of 25 μl/animal of 20% (v/v) acetic acid into the gastric wall under light ether anaesthesia according to the method similar to that described by Takagi et al. (1969). The oral treatment with the test compounds was started five days after the surgery and continued in a once-a-day regimen up to the 14th day. The animals were killed on the 15th day and their stomachs were dissected. The severity of ulceration was evaluated by the measurement of the diameter of the ulcers and the area affected was calculated. The healing effect was expressed as differences in percentage between the control and test group values.

[8] = 25 mg/kg p.o., 30 min before indomethacin
[9] = L-NAME + zinc chloride, 25 + 25 mg/kg
[10] = Vehicle + zinc chloride, 0 + 25 mg/kg
[11] = 100 mg/kg p.o., 30 min before indomethacin
[12] = 100 mg/kg p.o., 30 min before indomethacin 40 mg/kg s.c.
[13] = 1.0 mg/kg p.o., 30 min before indomethacin
[14] = 1.0 mg/kg p.o., 30 min before indomethacin 40 mg/kg s.c.
[15] = 10.0 mg/kg p.o., 30 min before indomethacin
[16] = 10.0 mg/kg p.o., 30 min before indomethacin 40 mg/kg s.c.
[17] = listed as Zink-hyaluronate (III)

Compound: [Cl-].[Cl-].[Zn+2] [Zinc chloride, zinc chloride, reference compound]
- Lesion score/stomach ± S.E.M. ([1]; 25 mg/kg p.o.): 0.6 ± 0.2
- Inhibition ([1]; 25 mg/kg p.o.): 40.0%
- Protection against cold-restraint induced gastric damage (in words) [1]: only slight protective effects
- Inhibition [2, 8]: 0%
- Lesion number/stomach ± S.E.M. [2, 8]: 15.1 ± 3.7
- Protection of gastric mucosa against indomethacin (in words) [2]: do not provide any effect
- Inhibition ([3]; 3.2 mg/kg p.o.): 43.7%
- Lesion length/stomach mm ± S.E.M. ([3]; 3.2 mg/kg p.o.): 29.0 ± 4.0 mm
- Inhibition ([3]; 6.4 mg/kg p.o.): 52.0%
- Lesion length/stomach mm ± S.E.M. ([3]; 6.4 mg/kg p.o.): 24.7 ± 7.7 mm
- Inhibition ([3]; 12.8 mg/kg p.o.): 87.0%
- Lesion length/stomach mm ± S.E.M. ([3]; 12.8 mg/kg p.o.): 6.7 ± 1.6 mm
- Effect of L-NAME pretreatment on the gastroprotective activity (in words) ([4]; L-NAME 25 mg/kg): not influenced
- Inhibition (compared with the vehicle + vehicle group) [4, 9]: 73.2%
- Lesion length/stomach mm ± S.E.M. [4, 9]: 19.9 ± 5.5 mm
- Inhibition (compared with the vehicle + vehicle group) [4, 10]: 89.2%
- Lesion length/stomach mm ± S.E.M. [4, 10]: 8.0 ± 2.6 mm

Compound: sodium hyaluronate [reference compound]
- Lesion score/stomach ± S.E.M. ([1]; 100 mg/kg p.o.): 0.9 ± 0.2
- Inhibition ([1]; 100 mg/kg p.o.): 40.0%
- Protection against cold-restraint induced gastric damage (in words) [1]: only slight protective effects
- Inhibition ([5]; 100 mg/kg p.o., 30 min before PAF): 0%
- Lesion score/stomach ± S.E.M. ([5]; 100 mg/kg p.o., 30 min before PAF infusion, score 0-3): 2.6 ± 0.2^a
- Protection against ulcerogenic effect of PAF (in words) ([5]; rat, in vivo): did not show such effect
- Inhibition [2, 11]: 36.2%
- Lesion number/stomach ± S.E.M. [2, 12]: 14.6 ± 3.3
- Protection of gastric mucosa against indomethacin (in words) [2]: do not provide any effect
- Inhibition ([3]; 50 mg/kg p.o.): 15.6%
- Lesion length/stomach mm ± S.E.M. ([3]; 50 mg/kg p.o.): 65.7 ± 9.8 mm
- Inhibition ([3]; 100 mg/kg p.o.): 35.9%
- Lesion length/stomach mm ± S.E.M. ([3]; 100 mg/kg p.o.): 49.9 ± 6.0 mm
- Inhibition ([3]; 100 mg/kg p.o., listed as sodium hyaluronate): 36%

Compound: zinc hyaluronate [Zinc hyaluronate (I)]
- Effect on the intestinal motility (in words) [6]: absence of change in activity
- Propulsion of charcoal suspension mm ± S.E.M. ([6]; listed as Zink-hyaluronate (I)): 718 ± 5.6 mm
- Ratio of charcoal suspension to the whole intestinal part ([6]; listed as Zink-hyaluronate (I)): 0.79 ± 0.07
- Inhibition [2, 13]: 43.4%
- Lesion number/stomach ± S.E.M. [2, 14]: 4.7 ± 2.1
- Inhibition [2, 15]: 55.4%
- Lesion number/stomach ± S.E.M. [2, 16]: 3.7 ± 1.9
- Inhibition [2, 11]: 90.4%
- Lesion number/stomach ± S.E.M. [2, 12]: 0.8 ± 0.4
- Ulcerated area mm^2 ± S.E.M. [7]: 10.0 ± 2.3 mm^2
- Effect on healing of acetic acid induced chronic ulcer (in words) [7]: Neither zinc hyaluronate(I), nor zinc hyaluronate(III) had any effect
- Inhibition ([3]; 1 mg/kg p.o.): 0%
- Lesion length/stomach ([3]; 1 mg/kg p.o.): 95.3 ± 14.8
- Inhibition ([3]; 10 mg/kg p.o.): 35.0%
- Lesion length/stomach ([3]; 10 mg/kg p.o.): 53.6 ± 7.3
- Inhibition ([3]; 50 mg/kg p.o.): 66.7%
- Lesion length/stomach ([3]; 50 mg/kg p.o.): 27.4 ± 7.6
- Inhibition ([3]; 100 mg/kg p.o.): 93.4%
- Lesion length/stomach ([3]; 100 mg/kg p.o.): 5.4 ± 2.0
- ED50 (dose giving 50% decrease in ulcer index) [3]: 15.9 mg/kg

Compound: zinc hyaluronate [Zinc hyaluronate (III)]
- Propulsion of charcoal suspension mm ± S.E.M. [6, 17]: 68 ± 2.5 mm
- Ratio of charcoal suspension to the whole intestinal part [6, 17]: 0.89 ± 0.03
- Inhibition [2, 13]: 7.6%
- Lesion number/stomach ± S.E.M. [2, 14]: 17.0 ± 4.5
- Inhibition [2, 15]: 57.6%
- Lesion number/stomach ± S.E.M. [2, 16]: 7.9 ± 2.5
- Inhibition [2, 11]: 83.7%
- Lesion number/stomach ± S.E.M. [2, 12]: 3.0 ± 1.4
- Ulcerated area mm^2 ± S.E.M. [7]: 6.8 ± 0.8 mm^2
- Effect on healing of acetic acid induced chronic ulcer (in words) [7]: Neither zinc hyaluronate(I), nor zinc hyaluronate(III) had any effect
- Inhibition ([3]; 10 mg/kg p.o.): 0%
- Lesion length/stomach mm ± S.E.M. ([3]; 10 mg/kg p.o.): 98.4 ± 12.7 mm
- Inhibition ([3]; 25 mg/kg p.o.): 37.0%
- Lesion length/stomach mm ± S.E.M. ([3]; 25 mg/kg p.o.): 43.7 ± 7.7 mm
- Inhibition ([3]; 50 mg/kg p.o.): 78.5%
- Lesion length/stomach mm ± S.E.M. ([3]; 50 mg/kg p.o.): 14.9 ± 4.5 mm
- Inhibition ([3]; 100 mg/kg p.o.): 85.7%
- Lesion length/stomach mm ± S.E.M. ([3]; 100 mg/kg p.o.): 9.9 ± 3.5 mm
- ED50 (dose giving 50% decrease in ulcer index) [3]: 33.2 mg/kg
